Reference: US8802082B2, “Rhodamine derivatives for photodynamic diagnosis and treatment” (Université de Montreal, priority 1999, dated 2014)

Assays:
Assay type in all cases: cell-based, human
[1] = test system: cells from subject A, activated against B; test: Allogeneic T cell activation (one-way mixed lymphocyte culture), PDT, then proliferation assay; conditions: TH9402 PDT, 5-day proliferation assay
Procedure: Suspensions of cells were then incubated with 10 μM TH9402 for 40 minutes at 37° C. Cells were treated at 1×10^6 cells/mL in X-vivo-15 medium without phenol red (BioWhittaker, Walkersville, Md., USA) supplemented with 2,5% FBS. At the end of the incubation period, cells were spun down and the cell pellet resuspended in the X-vivo culture medium in the absence of dye, supplemented with 10% FBS. Cells were then placed in T-flasks (Corning, Cambridge, Mass., USA) for 90 minutes at 37° C. Following this second incubation in medium without dye, cells were exposed at 3 mm thickness to desired light energy, usually 5 joules/cm^2 using a previously described light delivery device (U.S. Pat. No. 5,798,523). Light energy was delivered using a fluorescent scanning lamp device with maximum wavelength around 512 nm.
The latter cells were serially diluted in order to obtain effector (treated cells) to target ratios ranging from 2:1 to 1:4 (4×10^4 treated effector cells/well) and incubated at 37° C. for 5 days. Eighteen hours prior to harvesting, 1 μCi of ^3H-thymidine was added. Cells were harvested using a PHD cell harvester (Cambridge Technology, Boston, Mass., USA). Radioactivity in the cell harvest was counted using a liquid scintillation counter (Beckman, Chicago, Ill., USA).
Another approach was used in this study to activate cells against specific target antigens. […]

resting lymphocytes = test: Cellular content/efflux of TH9402 by flow cytometry, resting lymphocytes
Procedure: TH9402 cellular content in resting and activated lymphocytes was evaluated by flow-cytometry, since the intensity of TH9402 (green) fluorescence correlates with the cellular content in TH9402. Briefly, 10^6 cells/ml, previously activated or not with PHA, were incubated in X-vivo-5 medium supplemented with 2.5% human AB serum and 10 μM TH9402 for 40 minutes. These cells were washed two times with X-vivo medium supplemented with 10% AB serum and cells analysed by flow cytometry 30, 50, 70, 90 and 110 min after the end of the TH9402 incorporation period. […] Since cellular concentration of TH9402 correlates with the extent of cell elimination, the high concentration of TH9402 maintained in activated lymphocytes explains their sensitivity to photodynamic therapy. In contrast, the rapid efflux of TH9402 from resting lymphocytes should explain preservation of their proliferative activity.
In order to identify the mechanism responsible for the differential retention of TH9402 between activated and resting lymphocytes, cyclosporin-A was used to block the multidrug transporter (P-gp 170). These cells were incubated with 10 μM TH9402 for 8 minutes, and washed with medium containing 1 μg/ml cyclosporin-A or medium alone. TH9402 retention was subsequently evaluated by flow-cytometry (green fluorescence) (FIG. 5). […] The functional impairment of such a pump in activated lymphocytes could explain the high levels of phototoxicity observed in these cells.

[2] = test system: non-lymphoid hematopoietic progenitors (CFU-GM, BFU-E, CFU-GEMM); test: Clonogenic assay of hematopoietic progenitors in methylcellulose after PDT; conditions: same conditions of PDT as for B cells
Procedure: To evaluate the potential of PDT with TH9402 to eliminate other immune cell populations, normal human B cells were used as targets. Mononuclear cells from normal donors were obtained by leukopheresis, and resuspended at 20 million cells per ml during the whole PDT process. Cells were centrifuged and resuspended in pre-warmed (37° C.) X-Vivo-15 medium supplemented with 2.5% FCS and 10 U/ml heparin, with 5 μM TH9402. After 40 minutes of incubation at 37° C., cells were washed and resuspended in a X-Vivo-15 medium and 10% FCS with 10 U/ml heparin (medium free of TH9402) for an efflux period of 50 minutes before exposure to light energy (10 to 30 Joules/cm^2). Cells underwent light exposure at 20 million cells per ml and at a thickness of 2 cm.
To verify that the treatment preserved normal hematopoetic progenitors, we have used a clonogenic assay to measure the amount of hematopoetic clonogenic precursors present in the same samples. […]
Normal human mononuclear cells were obtained and subjected to various PDP conditions to determine the efficacy of eradication of B cells, specificity and safety of the procedure. […] In contrast, when these cells were evaluated for the elimination of non-lymphoid hematopoietic progenitors, usually less than 50% (half of a logarithm) of these progenitors were eliminated by the same conditions of PDT (FIG. 7B). […]

Br.COC(=O)c1ccccc1-c1c2ccc(=N)c(Br)c-2oc2c(Br)c(N)ccc12 [TH9402, 4,5-dibromorhodamine 123 (2-(4,5-dibromo-6-amino-3-imino-3H-xanthen-9-yl)-benzoic acid methyl ester) hydrobromide]
proliferation when exposed to C cells (mismatched unrelated) [1]: retained the capacity to proliferate | proliferation when reexposed to cells from B [1]: did not proliferate | cells demonstrating low TH9402 fluorescence (resting lymphocytes; 10 μM TH9402 40 min, 110 minutes after the end of the incorporation period): approximately 50% | TH9402 retention with cyclosporin A versus medium alone, resting lymphocytes (resting lymphocytes; 10 μM TH9402, wash with 1 μg/ml cyclosporin-A, 110 minutes): higher retention | intensity of TH9402 fluorescence, resting versus activated lymphocytes (resting lymphocytes; all time-points evaluated (30-110 min)): less for resting lymphocytes than for activated lymphocytes | non-lymphoid hematopoietic progenitors eliminated [2]: less than 50%
